Experimental data as given in publication PMC7190983, “A Putative Efflux Transporter of the ABC Family, YbhFSR, in Escherichia coli Functions in Tetracycline Efflux and Na^+(Li^+)/H^+ Transport” (Frontiers in Microbiology, 2020).

Key:
[1] = target: T1, YbhFSR (Escherichia coli, UniProt P0AFP9+P0AFQ2); experiment: whole-cell ethidium fluorescence efflux, knockout and complemented strains; format: cell-based; parameters: gene ybhS; native transporter in whole cells; ybhF knockout, acrB ybhF double knockout and ybhF overexpression strains compared; YbhG and TolC probably also take part; settings: 2.5 μM EB preloaded, 25 mM glucose, 50 mM KPi pH 7.0, 5 mM MgSO4, 37 °C
[2] = target: T1, YbhFSR; parameters: gene ybhS; settings: 100 μg/ml tetracycline, Mg2+ buffer pH 8.0

Structure (SMILES)	whole-cell ethidium fluorescence efflux, knockout and complemented strains [1]	whole-cell tetracycline fluorescence efflux and accumulation, knockout strains [2]
CC[n+]1c(-c2ccccc2)c2cc(N)ccc2c2ccc(N)cc21 [ethidium bromide]	the ybhF gene knockout reduced the ethidium efflux capacity	–
CN(C)[C@@H]1C(=O)C(C(N)=O)=C(O)[C@@]2(O)C(=O)C3=C(O)c4c(O)cccc4[C@@](C)(O)[C@H]3C[C@@H]12 [tetracycline]	–	knockout of ybhF decreased the efflux of tetracycline and increased the intracellular accumulation
